Assay results published in patent publication US10829796B2, “Bacteria identification and antimicrobial susceptibility test” (priority 2015, dated 2020).

System: bacteria samples 4c, 4e, 5c, 5e, 6d
Assay: Antibiotic susceptibility testing (colour of media), plate configuration #3, reference colours at 0 hours for bacteria samples 4c, 4e, 5c, 5e, 6d
Type: cell-based
Conditions: T~0 h
[1] = Benzyl Penicillin or Cloxacillin 1 μg/ml
[2] = Benzyl Penicillin or Cloxacillin 10 μg/ml
[3] = Benzyl Penicillin or Cloxacillin 100 μg/ml
[4] = Benzyl Penicillin or Cloxacillin 1,000 μg/ml
[5] = Benzyl Penicillin or Cloxacillin 10,000 μg/ml

| SMILES | Colour of media in each well [1] | Colour of media in each well [2] | Colour of media in each well [3] | Colour of media in each well [4] | Colour of media in each well [5] | Colour of media in each well (Aztreonam 0.001 μg/ml) | Colour of media in each well (Aztreonam 0.01 μg/ml) | Colour of media in each well (Aztreonam 0.1 μg/ml) | Colour of media in each well (Aztreonam 1 μg/ml) | Colour of media in each well (Aztreonam 10 μg/ml) |
| --- | --- | --- | --- | --- | --- | --- | --- | --- | --- | --- |
| CC1(C)S[C@@H]2[C@H](NC(=O)Cc3ccccc3)C(=O)N2[C@H]1C(=O)O [benzyl penicillin] | Red | Red | Red | Red | Red | – | – | – | – | – |
| C[C@H]1[C@H](NC(=O)/C(=N\OC(C)(C)C(=O)O)c2csc(N)n2)C(=O)N1S(=O)(=O)O [aztreonam] | – | – | – | – | – | red | red | red | red | red |
| Cc1onc(-c2ccccc2Cl)c1C(=O)N[C@@H]1C(=O)N2[C@@H]1SC(C)(C)[C@@H]2C(=O)O [cloxacillin] | red | red | red | red | red | – | – | – | – | – |
